Literature values, collected in patent publication US9439866B2, “Trazodone composition for once a day administration” (priority 2005, dated 2016).
“Also recorded” adds a separate entry of the source.

Cl.O=c1n(CCCN2CCN(c3cccc(Cl)c3)CC2)nc2ccccn12 [trazodone]
solubility below its pKa (acid media (stomach and upper intestines), pH below pKa): highly soluble
solubility above its pKa (neutral and basic conditions of the lower intestine, pH above pKa): very low; also recorded: poorly soluble
